# Assay results as given in ChEMBL document CHEMBL1135517, “N(6)-alkyl-2-alkynyl derivatives of adenosine as potent and selective agonists at the human adenosine A(3) receptor and a starting point for searching A(2B) ligands” (J Med Chem, 2002).
# pEC50, pKi: −log10 of the molar value.
# Molecular target: T1, Adenosine receptor A1 (Homo sapiens, UniProt P30542)
# T1 sequence (P30542 whole entry): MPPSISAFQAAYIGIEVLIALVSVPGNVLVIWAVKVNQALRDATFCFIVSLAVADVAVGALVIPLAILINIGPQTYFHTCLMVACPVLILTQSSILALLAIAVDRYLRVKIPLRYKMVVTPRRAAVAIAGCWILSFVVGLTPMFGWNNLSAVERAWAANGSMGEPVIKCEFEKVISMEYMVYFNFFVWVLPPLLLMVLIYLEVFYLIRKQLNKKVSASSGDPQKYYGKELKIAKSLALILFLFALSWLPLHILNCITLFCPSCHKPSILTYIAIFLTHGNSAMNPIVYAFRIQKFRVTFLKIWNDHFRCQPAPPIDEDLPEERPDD
# Test: Binding affinity against Human recombinant Adenosine A1 receptor stably transfected in CHO cells using [3H]CCPA as radioligand
# Type: cell-based
row,Compound,pKi
1,CCCCC#Cc1nc(NC(C)C)c2ncn([C@@H]3O[C@H](CO)[C@@H](O)[C@H]3O)c2n1,7.37
2,CC(C)(C)OC(=O)C1CCCN1C[C@@H](O)[C@H](Cc1ccccc1)NC(=O)[C@H](CC(N)=O)NC(=O)OCc1ccccc1 (some centres undefined),7.22
3,Nc1nc(C#Cc2ccccc2)nc2c1ncn2[C@@H]1O[C@H](CO)[C@@H](O)[C@H]1O,6.41
4,Nc1nc(C#C[C@H](O)c2ccccc2)nc2c1ncn2[C@@H]1O[C@H](CO)[C@@H](O)[C@H]1O,9.36
5,CCCCC#Cc1nc(NCC)c2ncn([C@@H]3O[C@H](CO)[C@@H](O)[C@H]3O)c2n1,6.86
6,CC(C)Nc1nc(C#C[C@H](O)c2ccccc2)nc2c1ncn2[C@@H]1O[C@H](CO)[C@@H](O)[C@H]1O,8.96
7,CNc1nc(C#Cc2ccccc2)nc2c1ncn2[C@@H]1O[C@H](CO)[C@@H](O)[C@H]1O,5.77
8,CCNc1nc(C#Cc2ccccc2)nc2c1ncn2C1O[C@H](CO)[C@@H](O)[C@H]1O (some centres undefined),5.93

# Other lines, results leading:
row,pKi,Compound
1,9.17,Nc1nc(C#C[C@@H](O)c2ccccc2)nc2c1ncn2[C@@H]1O[C@H](CO)[C@@H](O)[C@H]1O
2,8.66,CCNc1nc(C#C[C@H](O)c2ccccc2)nc2c1ncn2[C@@H]1O[C@H](CO)[C@@H](O)[C@H]1O
3,8.15,CNc1nc(C#C[C@H](O)c2ccccc2)nc2c1ncn2[C@@H]1O[C@H](CO)[C@@H](O)[C@H]1O
4,8.57,CCNC(=O)[C@H]1O[C@@H](n2cnc3c(N)nc(C#CC(O)c4ccccc4)nc32)[C@H](O)[C@@H]1O (mixture of isomers)

# Molecular target: Adenosine receptor A2a (Homo sapiens, UniProt P29274)
# Test: Binding affinity against Human recombinant Adenosine A2A receptor stably transfected in CHO cells using [3H]NECA as radioligand
# Type: cell-based
# Sequence of Adenosine receptor A2a (P29274 whole entry): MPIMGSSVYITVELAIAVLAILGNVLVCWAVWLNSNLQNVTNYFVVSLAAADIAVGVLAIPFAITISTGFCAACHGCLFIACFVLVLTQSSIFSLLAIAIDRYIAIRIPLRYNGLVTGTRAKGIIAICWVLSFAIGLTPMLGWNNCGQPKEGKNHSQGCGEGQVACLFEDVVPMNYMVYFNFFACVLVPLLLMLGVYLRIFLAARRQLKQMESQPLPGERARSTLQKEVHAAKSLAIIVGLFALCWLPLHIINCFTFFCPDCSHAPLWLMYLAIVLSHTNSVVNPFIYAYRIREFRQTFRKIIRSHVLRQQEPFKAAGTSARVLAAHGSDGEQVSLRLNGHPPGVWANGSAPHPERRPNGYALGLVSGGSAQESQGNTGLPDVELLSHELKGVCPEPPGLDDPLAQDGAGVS
row,Compound,pKi
1,CCCCC#Cc1nc(NC(C)C)c2ncn([C@@H]3O[C@H](CO)[C@@H](O)[C@H]3O)c2n1,6.71
2,Nc1nc(C#Cc2ccccc2)nc2c1ncn2[C@@H]1O[C@H](CO)[C@@H](O)[C@H]1O,6.44
3,Nc1nc(C#C[C@H](O)c2ccccc2)nc2c1ncn2[C@@H]1O[C@H](CO)[C@@H](O)[C@H]1O,7.54
4,CCCCC#Cc1nc(NCC)c2ncn([C@@H]3O[C@H](CO)[C@@H](O)[C@H]3O)c2n1,6.57
5,CC(C)Nc1nc(C#C[C@H](O)c2ccccc2)nc2c1ncn2[C@@H]1O[C@H](CO)[C@@H](O)[C@H]1O,6.49
6,CNc1nc(C#Cc2ccccc2)nc2c1ncn2[C@@H]1O[C@H](CO)[C@@H](O)[C@H]1O,5.07
7,CCNc1nc(C#Cc2ccccc2)nc2c1ncn2C1O[C@H](CO)[C@@H](O)[C@H]1O (some centres undefined),5.35

# Continued, values first:
row,pKi,Compound
1,8.74,Nc1nc(C#C[C@@H](O)c2ccccc2)nc2c1ncn2[C@@H]1O[C@H](CO)[C@@H](O)[C@H]1O
2,5.93,CCNc1nc(C#C[C@H](O)c2ccccc2)nc2c1ncn2[C@@H]1O[C@H](CO)[C@@H](O)[C@H]1O
3,5.81,CNc1nc(C#C[C@H](O)c2ccccc2)nc2c1ncn2[C@@H]1O[C@H](CO)[C@@H](O)[C@H]1O
4,8.51,CCNC(=O)[C@H]1O[C@@H](n2cnc3c(N)nc(C#CC(O)c4ccccc4)nc32)[C@H](O)[C@@H]1O (mixture of isomers)

# Molecular target: T2, Adenosine receptor A3 (Homo sapiens, UniProt P0DMS8)
# T2 sequence (P0DMS8 whole entry): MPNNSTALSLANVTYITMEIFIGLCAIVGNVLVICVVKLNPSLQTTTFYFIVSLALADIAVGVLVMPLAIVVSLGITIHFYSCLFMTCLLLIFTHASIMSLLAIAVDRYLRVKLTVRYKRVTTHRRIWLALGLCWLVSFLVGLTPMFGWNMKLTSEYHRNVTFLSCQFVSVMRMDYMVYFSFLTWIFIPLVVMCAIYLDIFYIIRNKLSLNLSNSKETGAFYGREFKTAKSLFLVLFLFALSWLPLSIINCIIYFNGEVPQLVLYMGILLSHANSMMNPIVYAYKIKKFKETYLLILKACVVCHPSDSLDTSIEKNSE
# Test: Binding affinity against Human recombinant Adenosine A3 receptor stably transfected in CHO cells using [3H]NECA as radioligand
# Type: cell-based
row,Compound,pKi
1,CCCCC#Cc1nc(NC(C)C)c2ncn([C@@H]3O[C@H](CO)[C@@H](O)[C@H]3O)c2n1,8.01
2,CCCCC#Cc1nc(N)c2ncn([C@@H]3O[C@H](CO)[C@@H](O)[C@H]3O)c2n1,8.33
3,CC(C)(C)OC(=O)C1CCCN1C[C@@H](O)[C@H](Cc1ccccc1)NC(=O)[C@H](CC(N)=O)NC(=O)OCc1ccccc1 (some centres undefined),8.62
4,Nc1nc(C#Cc2ccccc2)nc2c1ncn2[C@@H]1O[C@H](CO)[C@@H](O)[C@H]1O,7.80
5,Nc1nc(C#C[C@H](O)c2ccccc2)nc2c1ncn2[C@@H]1O[C@H](CO)[C@@H](O)[C@H]1O,8.30
6,CCCCC#Cc1nc(NCC)c2ncn([C@@H]3O[C@H](CO)[C@@H](O)[C@H]3O)c2n1,8.64
7,CC(C)Nc1nc(C#C[C@H](O)c2ccccc2)nc2c1ncn2[C@@H]1O[C@H](CO)[C@@H](O)[C@H]1O,8.31
8,CNc1nc(C#Cc2ccccc2)nc2c1ncn2[C@@H]1O[C@H](CO)[C@@H](O)[C@H]1O,8.47
9,CCNc1nc(C#Cc2ccccc2)nc2c1ncn2C1O[C@H](CO)[C@@H](O)[C@H]1O (some centres undefined),8.31

# These reach a higher pKi. Values come first.
row,pKi,Compound
1,8.85,Nc1nc(C#C[C@@H](O)c2ccccc2)nc2c1ncn2[C@@H]1O[C@H](CO)[C@@H](O)[C@H]1O
2,8.85,CCNc1nc(C#C[C@H](O)c2ccccc2)nc2c1ncn2[C@@H]1O[C@H](CO)[C@@H](O)[C@H]1O
3,8.92,CNc1nc(C#C[C@H](O)c2ccccc2)nc2c1ncn2[C@@H]1O[C@H](CO)[C@@H](O)[C@H]1O
4,9.38,CCNC(=O)[C@H]1O[C@@H](n2cnc3c(N)nc(C#CC(O)c4ccccc4)nc32)[C@H](O)[C@@H]1O (mixture of isomers)

# Molecular target: T3, Adenosine receptor A2b (Homo sapiens, UniProt P29275)
# T3 sequence (P29275 whole entry): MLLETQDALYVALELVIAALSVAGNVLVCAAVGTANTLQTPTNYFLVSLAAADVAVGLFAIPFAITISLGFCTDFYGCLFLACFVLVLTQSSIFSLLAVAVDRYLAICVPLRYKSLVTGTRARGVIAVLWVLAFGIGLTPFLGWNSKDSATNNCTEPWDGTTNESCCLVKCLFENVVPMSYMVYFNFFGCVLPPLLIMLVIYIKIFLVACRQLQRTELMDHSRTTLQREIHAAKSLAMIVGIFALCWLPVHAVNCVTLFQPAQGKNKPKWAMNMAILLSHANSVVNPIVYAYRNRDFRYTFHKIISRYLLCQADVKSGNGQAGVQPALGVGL
# Test: Receptor-stimulated activity in CHO cells stably transfected with Human recombinant Adenosine A2B receptor measuring adenylyl cyclase activity
row,Compound,pEC50
1,CCCCC#Cc1nc(NC(C)C)c2ncn([C@@H]3O[C@H](CO)[C@@H](O)[C@H]3O)c2n1,4.00
2,CCCCC#Cc1nc(N)c2ncn([C@@H]3O[C@H](CO)[C@@H](O)[C@H]3O)c2n1,4.00
3,CC(C)(C)OC(=O)C1CCCN1C[C@@H](O)[C@H](Cc1ccccc1)NC(=O)[C@H](CC(N)=O)NC(=O)OCc1ccccc1 (some centres undefined),5.21
4,Nc1nc(C#Cc2ccccc2)nc2c1ncn2[C@@H]1O[C@H](CO)[C@@H](O)[C@H]1O,< 4.00
5,Nc1nc(C#C[C@H](O)c2ccccc2)nc2c1ncn2[C@@H]1O[C@H](CO)[C@@H](O)[C@H]1O,5.21
6,CCCCC#Cc1nc(NCC)c2ncn([C@@H]3O[C@H](CO)[C@@H](O)[C@H]3O)c2n1,4.00
7,CC(C)Nc1nc(C#C[C@H](O)c2ccccc2)nc2c1ncn2[C@@H]1O[C@H](CO)[C@@H](O)[C@H]1O,5.05
8,CNc1nc(C#Cc2ccccc2)nc2c1ncn2[C@@H]1O[C@H](CO)[C@@H](O)[C@H]1O,4.00
9,CCNc1nc(C#Cc2ccccc2)nc2c1ncn2C1O[C@H](CO)[C@@H](O)[C@H]1O (some centres undefined),< 4.00

# Second part, the compound after the results:
row,pEC50,Compound
1,6.04,Nc1nc(C#C[C@@H](O)c2ccccc2)nc2c1ncn2[C@@H]1O[C@H](CO)[C@@H](O)[C@H]1O
2,5.04,CCNc1nc(C#C[C@H](O)c2ccccc2)nc2c1ncn2[C@@H]1O[C@H](CO)[C@@H](O)[C@H]1O
3,4.00,CNc1nc(C#C[C@H](O)c2ccccc2)nc2c1ncn2[C@@H]1O[C@H](CO)[C@@H](O)[C@H]1O
4,5.96,CCNC(=O)[C@H]1O[C@@H](n2cnc3c(N)nc(C#CC(O)c4ccccc4)nc32)[C@H](O)[C@@H]1O (mixture of isomers)
